The record followed here is ChEMBL document CHEMBL1152722, “5-Aryl-4-(5-substituted-2,4-dihydroxyphenyl)-1,2,3-thiadiazoles as inhibitors of Hsp90 chaperone” (Bioorg Med Chem Lett, 2009).

The target in one test is Heat shock protein HSP90 (Homo sapiens, UniProt P07900+P08238).
In test [1] the target is Heat shock protein HSP 90-alpha (Homo sapiens, UniProt P07900).
Description: Binding affinity to human full length Histidine6-tagged Hsp90alpha expressed in Escherichia coli BL21 DE3 by ITC
In another test the test system is U2OS. The experiment in a line: Growth inhibition of human U2OS cells after 72 hrs by XTT assay. The format is functional.
In a further test the test system is HeLa. The experiment in a line: Growth inhibition of human HeLa cells after 72 hrs by XTT assay. The format is functional.

SMILES strings stand for the structures.

Description for Heat shock protein HSP90: Binding affinity to human Histidine6-tagged Hsp90alpha N-terminal domain expressed in Escherichia coli BL21 DE3 by ITC

For the molecule `COc1ccc(-c2snnc2-c2cc(Cl)c(O)c(Cl)c2O)cc1`, the dissociation constant (Kd) (at Heat shock protein HSP90; in test [1]) was over 20 µM throughout.

Regarding `COc1ccc(-c2snnc2-c2cc(Cl)c(O)cc2O)cc1OC`, the GI50 in the test on U2OS turned out to be 9.9 µM; with HeLa, 4.2 µM.

Regarding `CCOc1ccc(-c2snnc2-c2cc(CC)c(O)c(Cl)c2O)cc1`, the GI50 came out at 28 µM in the test with U2OS and 19 µM in the test with HeLa. In addition, the Kd (at Heat shock protein HSP90; in test [1]) was over 20 µM in each case.

With `CCOc1ccc(-c2snnc2-c2cc(Cl)c(O)cc2O)cc1`, the GI50 was determined as 6.9 µM in the test on U2OS and 3.6 µM in the test on HeLa.

In the case of `Cc1ccc(-c2snnc2-c2cc(Cl)c(O)cc2O)cc1`, the 50% growth inhibitory concentration (GI50) with U2OS came out at 7.1 µM; in the test with HeLa it was 3.3 µM.

Consider `COc1ccc(-c2snnc2-c2cc(Cl)c(O)cc2O)cc1`, for which the GI50 with U2OS amounted to 6 µM; with HeLa, 2.5 µM.

As to `CCOc1ccc(-c2snnc2-c2cc(CC)c(O)cc2O)cc1`, the values for the GI50 with U2OS and with HeLa were 0.69 µM and 0.7 µM, respectively.
